Five compounds from US9328095B2, “Heteroaryl linked quinolinyl modulators of RORgammat” (Janssen Pharmaceutica NV, priority 2013, dated 2016) can be followed below.

Structures are written as SMILES.

A word on the inhibition: it is the relative decrease from the control value, in per cent. One may read the IC50 as the concentration that gives 50% inhibition. High values mean weaker potency, low ones greater potency. By Kd is commonly meant a measure of binding affinity in units of concentration. Read a low Kd as higher affinity.

The target in experiment [1] is T1, wild type human RORγt LBD fused to the DNA binding domain of the GAL4 protein (Homo sapiens, UniProt P51449).
T1 construct: expressed in transfected cells; host or cells: HEK293T
T1 sequence (P51449 258-518): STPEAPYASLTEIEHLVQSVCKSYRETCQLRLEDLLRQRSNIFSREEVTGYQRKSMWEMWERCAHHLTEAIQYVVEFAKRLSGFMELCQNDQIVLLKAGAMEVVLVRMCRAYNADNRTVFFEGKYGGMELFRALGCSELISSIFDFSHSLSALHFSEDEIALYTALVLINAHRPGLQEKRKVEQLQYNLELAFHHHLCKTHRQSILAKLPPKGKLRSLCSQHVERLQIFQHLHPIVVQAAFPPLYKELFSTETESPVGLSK
The experiment can be described thus: RORγt reporter assay. The format is cell-based. Particulars: HEK293T cells. From the text: A reporter assay was used to test functional activity of RORγt modulatory compounds on transcriptional activation driven by the RORγt LBD. Cells used in the assay were co-transfected with two constructs. The first construct, pBIND-RORγt LBD, contained the wild type human RORγt LBD fused to the DNA binding domain of the GAL4 protein. The second construct, pGL4.31 (Promega Cat no. C935A), contained multiple GAL4 responsive DNA elements upstream of firefly luciferase. […] The mutant construct was called pBIND-RORγt-AF2.
The pBIND vector contains the GAL4 DNA Binding Domain (GAL4 DBD) and the renilla luciferase gene under control of the SV40 promoter. […]
The reporter assay was performed by transiently transfecting HEK293T cells with 5 μg of pBIND-RORγt LBD or pBIND-RORγt LBD-AF2 and 5 μg pGL4.31 (Promega Cat no. C935A) using Fugene 6 (Invitrogen Cat no. E2691) at a 1:6 ratio of DNA: Fugene 6 in a T-75 flask in which cells were at least 80% confluent. […] Dual Glo Luciferase Reagent (50 μL/well) was then added and firefly luciferase luminescence was read on an Envision after a ten minute incubation. Finally, Stop and Glo reagent (50 μL/well) was added and renilla luciferase luminescence was read on an Envision after a ten minute incubation. To calculate the effect of compounds on RORγt activity, the ratio of firefly to renilla luciferase was determined and plotted against compound concentration. […]

The test system of experiment [2] is IL-17 production by CD4 T cells. The experiment is described as follows: Human Th17 assay. It counts as cell-based. The settings on record: 3 days. From the text: The human Th17 assay tests the effect of RORγt modulatory compounds on IL-17 production by CD4 T cells under conditions which favor Th17 differentiation.
Total CD4^+ T cells were isolated from the peripheral blood mononuclear cells (PBMC) of healthy donors using a CD4^+ T cell isolation kit II, following the manufacturer's instructions (Miltenyi Biotec). Cells were resuspended in a medium of RPMI-1640 supplemented with 10% fetal bovine serum, penicillin, streptomycin, glutamate, and β-mercaptoethanol and were added to 96-well plates at 1.5×10^5 per 100 μL per well. 50 μL of compound at titrated concentrations in DMSO were added into each well at final DMSO concentration at 0.2%. Cells were incubated for 1 hour, then 50 μL of Th17 cell differentiation medium was added to each well. The final concentrations of antibodies and cytokines (R&D Systems) in differentiation medium were: 3×10^6/mL anti-CD3/CD28 beads (prepared using human T cell activation/expansion kit, Miltenyi Biotec), 10 μg/mL anti-IL4, 10 μg/mL anti-IFNγ, 10 ng/mL IL1β, 10 ng/mL IL23, 50 ng/mL IL6, 3 ng/mL TGFβ and 20 U/mL IL2. Cells were cultured at 37° C. and 5% CO2 for 3 days. Supernatants were collected and the accumulated IL-17 in culture was measured by using MULTI-SPOT® Cytokine Plate following manufacture's instruction (Meso Scale Discovery). The plate was read using Sector Imager 6000, and IL-17 concentration was extrapolated from the standard curve. The IC50s were determined by GraphPad.

Experiment [3] concerns the target T2, human RORγt ligand binding domain (RORγt LBD) (Homo sapiens, UniProt P51449).
T2 construct: His-tag (N); TurboTEV protease cleavage site (ENLYFQG) (N); made in house; host or cells: E. coli (pHIS1, modified pET vector)
T2 sequence (P51449 with tags, fused parts or gaps): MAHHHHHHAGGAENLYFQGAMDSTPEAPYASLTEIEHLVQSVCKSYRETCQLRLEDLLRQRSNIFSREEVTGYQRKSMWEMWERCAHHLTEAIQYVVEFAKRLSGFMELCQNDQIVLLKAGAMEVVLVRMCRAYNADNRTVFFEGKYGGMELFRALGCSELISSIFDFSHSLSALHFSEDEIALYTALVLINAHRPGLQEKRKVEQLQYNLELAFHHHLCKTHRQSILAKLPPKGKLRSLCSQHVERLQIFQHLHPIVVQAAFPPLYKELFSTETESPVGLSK
The experiment is described as follows: RORγt ThermoFluor assay. As for the experimental part: This approach is applicable to a wide variety of systems, and rigorous in theoretical interpretation through quantitation of equilibrium binding constants (KD).
The shift in the melting point described as a ΔTm is proportional to the concentration and affinity of the ligand. The compound potency may be compared as a rank order of either ΔTm values at a single compound concentration or in terms of KD values, estimated from concentration response curves.
ThermoFluor® experiments were carried out using instruments owned by Janssen Research and Discovery, L.L.C. through its acquisition of 3-Dimensional Pharmaceuticals, Inc. 1,8-ANS (Invitrogen) was used as a fluorescent dye. […]
Bar-coded assay plates are robotically loaded onto a thermostatically controlled PCR-type thermal block and then heated at a typical ramp-rate of 1° C./min for all experiments. Fluorescence was measured by continuous illumination with UV light (Hamamatsu LC6) supplied via fiber optic and filtered through a band-pass filter (380-400 nm; >6 OD cutoff). Fluorescence emission of the entire 384-well plate was detected by measuring light intensity using a CCD camera (Sensys, Roper Scientific) filtered to detect 500±25 nm, resulting in simultaneous and independent readings of all 384 wells. […]
On the technique in general: In DSF a fluorescence change marks the thermal transition of the protein.

For the compound `CCN(CC)c1nc2ccc(C(O)(c3ccccn3)c3cncn3C)cc2c(C#N)c1Oc1ccccc1` (single isomer, unassigned) [Example 5c], the inhibition at 6 µM in experiment [1] (HEK-293T, 6 μM) amounted to 103%.

`Cn1cncc1C(O)(c1ccc(C(F)(F)F)nc1)c1ccc2nc(N3CCCC3)c(Oc3ccc(C#N)cc3)c(Cl)c2c1` (stereo not drawn) [Example 2a, 4-((4-Chloro-6-(hydroxy(1-methyl-1H-imidazol-5-yl)(6-(trifluoromethyl)pyridin-3-yl)methyl)-2-(pyrrolidin-1-yl)quinolin-3-yl)oxy)benzonitrile] displayed a 50% inhibitory concentration (IC50) in experiment [2] of 88 nM.

Consider `Cn1cncc1C(O)(c1ccc(C(F)(F)F)nc1)c1ccc2nc(N3CCCC3)c(Oc3ccc(C#N)cc3)c(Cl)c2c1` (stereo not drawn) [Example 2b], for which the IC50 in experiment [2] was determined as 320 nM.

For the compound `Cn1cncc1C(O)(c1ccc(C(F)(F)F)nc1)c1ccc2nc(N3CCCC3)c(Oc3ccc(C#N)cc3)c(Cl)c2c1` (stereo not drawn) [Example 2c], the concentration for half-maximal inhibition (IC50) in experiment [2] was determined as 100 nM.

In experiment [3], `CC(C)(C)OC(=O)N(c1ccccc1)c1c(Cl)nc2ccc(C(O)(c3cccnc3)c3cccc(Cl)c3)cc2c1Cl` (stereo not drawn) [Example 7, tert-Butyl (2,4-dichloro-6-((3-chlorophenyl)(hydroxy)(pyridin-3-yl)methyl)quinolin-3-yl)(phenyl)carbamate] gave a dissociation constant (Kd) of 23000 nM. The IC50 in experiment [1] was 1400 nM.
